This test concerns the target T1, FZD8 (frizzled-8) cysteine-rich domain, FZD8CRD (Mus musculus, UniProt Q61091).
T1 construct: Extracellular CRD A28-R153, pHL-Avi3, BirA-biotinylated, secreted from HEK293T, immobilized on streptavidin SPR chip
T1 sequence (Q61091 28-153): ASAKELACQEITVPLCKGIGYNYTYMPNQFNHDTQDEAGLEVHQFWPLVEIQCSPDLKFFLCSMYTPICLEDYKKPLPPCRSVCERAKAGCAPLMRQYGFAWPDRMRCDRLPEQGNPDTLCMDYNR
In words: crystal structure at […] Å (N49E/N152E construct); SPR Kd on biotinylated FZD8CRD (A28-R153). The class given is binding.

The structures appear in SMILES notation.

One may read the Kd as the constant that tells how readily two partners part at equilibrium. A higher Kd goes with a looser complex.

The molecule `NC(=O)N1c2ccccc2C=Cc2ccccc21` [compound 79, 5H-dibenzo[b,f]azepine-5-carboxamide] gave a Kd of 17 µM.

Source of the values: paper PMC7104226, “Antiepileptic Drug Carbamazepine Binds to a Novel Pocket on the Wnt Receptor Frizzled-8” (Journal of Medicinal Chemistry, 2020).
